One substance from patent publication US20260085087A1, “CHEMICAL COMPOUND COMPRISING A TRIAZINE GROUP AND METHOD FOR PRODUCING SAME” (priority 2020, published 2026) can be followed below.

Series [1] has as its system HEK293T cells. In words: Comparison of cell penetration efficiency of oligonucleotides with lipophilic moieties in various modification backbones. The series is classed as cell-based, human. As to conditions: 4 hours after transfection. How it is done: (§1) Cultured HEK293T and T98G human cells were plated onto the wells of a 24-well microplate in a concentration 20×10^4 cells/well (HEK293T) or 12×10^4 cells/well (T98G) in 500 μl/well IMDM media comprising 10% FBS and 1% solution of antibiotic and antimycotic agents (10 mg/ml streptomycin, 10,000 U/ml penicillin, and 25 mg/ml amphotericin (IMP Biomedicals, Germany) (hereinafter, the complete medium), and incubated for 18 hrs to provide cell attachment. Furthermore, cell medium was replaced with 200 μl/well IMDM medium in the absence of serum and antibiotic agents. Oligonucleotides (OSNF, OSN4F) were dissolved in Opti-MEM and added to the cells until the final concentration of 1 or 5 μM (50 μl/well) was achieved. […] The cells were analyzed on a flow cytometer NovoCyte 3000 (ACEA Biosciences, USA). […] Oligonucleotide penetration efficiency was characterized by two indicators: % of fluorescent cells in a population and average intensity of cell fluorescence in a sample, which were measured using flow cytometry in 4 hours after transfection. Histograms A and C show % of fluorescent cells, histograms B and D show average fluorescence intensity. RFU means relative fluorescence units, LF means Lipofectamine 2000. […]
Cell fluorescence percent (left) and average fluorescence intensity (right) were measured using flow cytometry in 4 hours after transfection. […]

The test system of series [2] is HEK293T cells. Put plainly: Confocal microscopy of penetration into human cells. It counts as cell-based. As to conditions: 1 μM, 4 hours, no serum. How it is done: In this study, oligonucleotide 5′-[FAM]-CTGACTATGAAGTAT*T-3′ (OSN4F) was used, wherein * is a position of triazinylamidophosphate unit having two dodecyl moieties.
Cultured human cells HEK293T were plated on slides placed to the wells of the 24-well microplate, in a concentration of 6×10^4 cells/well in a complete IMDM medium and incubated at 37° C. in 5% CO2 for 12 to 18 hours to provide cell attachment. Then, the medium was replaced to IMDM, in the absence of serum and antibiotic agent, which comprises OSN4F at a concentration of 1 μM. The cells were incubated in the presence of oligonucleotide at 37° C. in 5% CO2 for 4 hours. […]
Intracellular location of oligonucleotide OSN4F was studied using confocal microscope LSM710 (Zeiss, Germany) with the plan-apochromat 63×/1.40 Oil DIC M27 (Zeiss, Germany) lens and two channels, blue and green. Fluorescence in a blue channel at exciting laser wavelength of 405 nm corresponded to NucBlue (cell nuclei staining); green channel at exciting laser wavelength of 488 nm corresponded to fluorescence of oligonucleotide OSN4F labelled with a 6-carboxyfluorescein moiety.

The subject of series [3] is T98G cells. In words: T98G cell transfection efficiency by flow cytofluorometry. The series is classed as cell-based, human. The conditions noted are these: 4 hours. How it is done:
(§2) To study cell penetration efficiency, oligonucleotide 5′-[FAM]-CTGACTATGAAGTAT*T-3′ (OSN4F) was used, wherein * is a position of thiazinylamidophosphate unit carrying two dodecyl moieties, and control unmodified oligonucleotide 5′-[FAM]-CTGACTATGAAGTATT-3′ (OSNF).
as §1, with “Histograms A and C show % of fluorescent cells, histograms B and D show average fluorescence intensity.” left out

The test system of series [4] is HEK293T cells. Put plainly: HEK293T cell transfection efficiency by flow cytofluorometry. The conditions noted are these: 4 hours. It counts as cell-based, human. As to the method: as §2
as §1, with “Histograms A and C show % of fluorescent cells, histograms B and D show average fluorescence intensity.” left out

[TzD] = triazinylamidophosphate internucleotide linkage carrying two dodecyl amine moieties; {FAM} = fluorescein (FAM) label

As for “5′-[FAM]-CTGACTATGAAGTAT*T-3′ (CTGACTATGAAGTATT; DNA, linkages o14 [TzD]1 (s phosphorothioate, o phosphodiester), 5' {FAM}, methylation of C not given here) [OSN4F, * is a triazinylamidophosphate unit carrying two dodecyl moieties]”, the “penetration rate (cell fluorescence percent) relative to PGO, PN, ODF” value in series [1] (1 μM) was “significantly higher than in other oligonucleotides used”. Besides, in series [1], the “average fluorescence intensity relative to other oligonucleotides” value was “penetrates cells in larger amounts than other oligonucleotides”. For the same substance, the intracellular location result in series [2] is “positioning in the cytoplasm and various cell compartments”. In addition, the “penetration efficiency relative to control oligonucleotide” value in series [3] (1 or 5 μM, no additional transfectants) is given as “penetrates the T98G cells more efficiently than the control oligonucleotide”. Besides, the “penetration efficiency in T98G relative to HEK293T cells” value in series [3] is “reduced relative to the HEK293K kidney cells”. For the same substance, the “penetration efficiency (number of transfected cells and fluorescence intensity)” value in series [4] (1 or 5 μM, no additional transfection agent) was “efficiently penetrates the HEK293T cells”. Also, the “penetration efficiency relative to control OSNF with Lipofectamine 2000” value in series [4] (OSN4F without transfection agent) is reported as “comparable”.
